Reference: PubChem BioAssay (NCI)
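Five concentrations, 48 hours, 96-well plates. TGI denotes the concentration required for complete inhibition of growth.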

Tests used:
Test in all cases: DTP human tumour cell line panel, 48 h
DLD-1 colon = tested on: DLD-1 colon
DMS 273 small cell lung = tested on: DMS 273 small cell lung
DMS 114 small cell lung = tested on: DMS 114 small cell lung
KM20L2 colon = tested on: KM20L2 colon
RXF-631 renal = tested on: RXF-631 renal

| SMILES | TGI (DLD-1 colon) | TGI (DMS 273 small cell lung) | TGI (DMS 114 small cell lung) | TGI (KM20L2 colon) | TGI (RXF-631 renal) |
| --- | --- | --- | --- | --- | --- |
| NNC(=O)N/N=C1/C(=O)N(c2ccc(Cl)c(Cl)c2)C(=O)C(=O)C1c1nc2ccccc2o1 (stereo unspecified) | > 100 µM | > 100 µM | > 100 µM | > 100 µM | > 100 µM |
| O=S1Cc2ccccc2CSS1 (stereo unspecified) | 41.1 µM | 24.1 µM | 34.6 µM | 41.9 µM | 48.5 µM |
| C/C(=N\NS(=O)(=O)c1ccccc1)c1ccc[n+]([O-])n1 | > 100 µM | > 100 µM | > 100 µM | > 100 µM | > 100 µM |
| COc1c(OC2OC(CO)C(O)C(O)C2O)cc2c(c1OC)-c1ccc(OC)c(=O)cc1[C@@H](NC(C)=O)CC2 (stereo partly specified) | > 100 µM | > 100 µM | > 97 µM | > 100 µM | > 100 µM |
| CCOc1ccccc1NC(=O)C(=O)c1c(O)c2ccc(O)cc2oc1=O | > 100 µM | > 100 µM |  | > 100 µM | > 100 µM |
| CCCCCCC(=O)CC(=O)C(=O)Nc1ccccc1C | > 100 µM | > 100 µM | > 100 µM | > 100 µM | > 100 µM |
| C=C1CC(CC(=O)C(C)CC2CC(=C)C(=O)O2)OC1=O (stereo unspecified) | 30.4 µM | 57.5 µM | 39 µM | > 100 µM | > 100 µM |
| Cc1c(C(=O)Nc2ccc(Cl)cc2)nc(N)nc1-c1cccc(Cl)c1 | > 100 µM | > 100 µM | > 100 µM | > 100 µM | > 100 µM |
| CCOC(=O)C1C(=O)c2cccc(OC)c2C2COC(=O)N12 (stereo unspecified) | > 100 µM | > 100 µM | > 100 µM | > 100 µM | > 100 µM |
| CCOc1cc[n+](C(=C=[N-])C#N)cc1 | > 100 µM | > 100 µM | > 100 µM | > 100 µM | > 100 µM |
| CCc1cccc(CC)c1NC(=O)C1=CNC(C)=C(C(=O)Nc2c(CC)cccc2CC)C1c1ccc(O)c(OC)c1 (stereo unspecified) | > 100 µM |  | > 100 µM | > 100 µM | > 100 µM |
| OCC(O)C(OC1OC(CO)C(O)C(O)C1O)c1nn(-c2ccc(Cl)cc2)c2nc3cc(Cl)ccc3nc12 (stereo unspecified) | > 100 µM |  | > 100 µM | > 100 µM | > 100 µM |
| Cc1ccccc1NC(=O)CC(=O)n1nc(-c2ccccc2)c(N=Nc2ccc([N+](=O)[O-])cc2)c1-c1ccccc1 | > 100 µM | 49.4 µM | 30.3 µM | 32.8 µM | 41.6 µM |
| NC(C(=O)O)c1ccc(C(=O)O)cc1 (stereo unspecified) | > 100 µM |  | > 100 µM | > 100 µM | > 100 µM |
| N#CC1([N+](=O)[O-])C=C1c1ccccc1 (stereo unspecified) | > 100 µM | > 100 µM | > 100 µM | > 100 µM | > 100 µM |
| CC(=O)Nc1ccccc1S(=O)c1ccccc1 (stereo unspecified) | > 100 µM | > 100 µM | > 100 µM | > 100 µM | > 100 µM |
| Cc1ccc(SSCCCCS(=O)O)cc1 | > 100 µM | 65.7 µM | 41.9 µM | 46.9 µM | 77.6 µM |
| N#CC12CC3(CCC1CCC1(C2)OCCO1)OCCO3 (stereo unspecified) | > 100 µM | > 100 µM | > 100 µM | > 100 µM | > 100 µM |
